Data taken from article PMC10295947 (Biomolecules, 2023).
Counter-ions that a name gives are not always drawn.

Target: MOR (Mus musculus, UniProt P42866)
Type: biochemical

Sequence of MOR (P42866 whole entry): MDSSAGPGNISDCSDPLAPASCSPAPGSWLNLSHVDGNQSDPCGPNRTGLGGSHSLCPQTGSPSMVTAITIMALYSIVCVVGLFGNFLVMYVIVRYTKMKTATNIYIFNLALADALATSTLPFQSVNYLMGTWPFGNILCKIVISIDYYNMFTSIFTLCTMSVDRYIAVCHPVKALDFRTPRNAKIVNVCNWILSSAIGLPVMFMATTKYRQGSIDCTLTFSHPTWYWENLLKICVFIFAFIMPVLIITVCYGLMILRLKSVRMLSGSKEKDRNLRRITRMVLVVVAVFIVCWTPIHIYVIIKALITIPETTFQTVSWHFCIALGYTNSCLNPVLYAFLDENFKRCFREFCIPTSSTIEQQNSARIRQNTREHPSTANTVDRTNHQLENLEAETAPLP

COc1ccsc1CNCC[C@@]1(c2ccccn2)CCOC2(CCCC2)C1 [oliceridine, Oliceridine hydrochloride]
Stimulation of 35S-GTPγS binding (in words): no measurable stimulation
